One series concerns L. guyanensis (LgyLRV1+). Description: Drug-inhibition test: growth of LgyLRV1+ parasites. The class given is cell-based, Leishmania guyanensis.
Series [1] has as its system LRV1 (LgyLRV1 capsid levels). Description: organism not typed. The following applies: for LgyLRV1− population in washout, of total cell population / Parasites with LgyLRV1+ capsid levels in washout population: then drug-free media.
The next series deals with dsRNA LRV1 genome. In words: Quantitative anti-dsRNA slot blots of LRV1 genome. The class given is cell-based, Leishmania RNA virus 1 in Leishmania guyanensis. To be noted: LgyLRV1+.
Series [2] deals with L. braziliensis strains bearing LRV1. Description: Growth inhibition of L. braziliensis strains bearing LRV1. The format is cell-based. The following applies: Leishmania braziliensis. Here is the method:
For 2CMA, the EC50 was estimated to be ˜3 μM for LRV1 capsid inhibition, versus >100 μM for parasite growth (FIG. 11A), at least 30-fold selective. […] Several studies were carried out with L. braziliensis strains bearing LRV1 (12). The 2CMA EC50 for LbrLRV1 was similar to that seen with LgyLRV1 (˜3 μM); however, parasites were somewhat more susceptible to growth inhibition (EC50 50-100 μM). Because the available quantities of 7d2CMA were limiting and both compounds were similarly selective for L. guyanensis, we focused thereafter on 2CMA.
Most studies were performed using luciferase-expressing transfectants of L. guyanensis (MHOM/BR/78/M4147) described previously [LRV1^+ LgyM4147/SSU:IR2SAT-LUC(b)c3 and LRV^−LgyM4147/pX63HYG/SSU:IR2SAT-LUC(b)c4] (54); these lines are termed LgyLRV1^+ and LgyLRV1^−, respectively. Two strains of LRV1^+L. braziliensis were examined: LEM2780 (MHOM/BO/90/CS) and LEM3874 (MHOM/BO/99/IMT252 no. 3) (12). Parasites were grown in Schneider's media (Sigma Aldrich, St. Louis, Mo., USA) prepared according to the supplier's instructions with pH adjusted to 6.5 and supplemented with 0.76 mM hemin, 2 μg/mL biopterin, 50 U/mL penicillin, 50 μg/mL streptomycin, and 10% (vol/vol) heat-inactivated FBS. Cell concentrations were determined using a Coulter Counter ([…], Indianapolis, Ind., USA).

Series [3] concerns LRV1 (LgyLRV1 capsid levels). The following applies: from Kuhlmann, 2017; cited from earlier work.
The conditions of series [4]: animal models; cited from earlier work.

Like-named read-outs stand apart in the source and are kept apart here.

Protocol for dsRNA LRV1 genome: RNA slot blot analysis was performed as described previously (36).

What is called EC50 is the concentration at which the effect is half-maximal. As a reminder, the inhibition is how much of the control response was suppressed. In turn, `C[C@@]1(O)[C@H](O)[C@@H](CO)O[C@H]1n1cnc2c(N)ncnc21` [2′C-methyadenosine, 2′-C-methyladenosine] displayed a Population doubling time in the series with L. guyanensis (LgyLRV1+) (L. guyanensis at 100 μM, untreated 6.4 hours) of 8.5 h. Further, the activity at 100 µM with L. guyanensis (LgyLRV1+) (Leishmania guyanensis, 48 h, LgyLRV1+, tested at 100 μM, growth after 2 days, read-out: Percent control (density)) is 72%; in series [1] (48 h, read-out: Percent control (LRV1 capsid)) it was 7%. Further, the EC50 in the series on L. guyanensis (LgyLRV1+) (Leishmania guyanensis, L. guyanensis, relative cellular growth rate, titration, read-out: EC50 for parasite growth) is > 100 µM; in series [1] (48 h, read-out: EC50 for 2CMA inhibition of LRV1 in the presence of allopurinol) it was ~3 µM; in series [1] (read-out: EC50 for LRV1 capsid inhibition) it was ~3 µM; with dsRNA LRV1 genome it was ~1 µM; in series [2], 50 to 100 µM. In addition, in the series on L. guyanensis (LgyLRV1+) (Leishmania guyanensis, tested at 100 μM, read-out: Inhibition of parasite density), the inhibition at 100 µM is 30%. Also, in the series on L. guyanensis (LgyLRV1+) (LgyLRV1+, tested at 100 μM, growth after 2 days), the “Density (cells/mL)” value is 1.22E+7 cells/mL. Besides, the “LgyLRV1− population in washout, of total cell population” value in series [1] (100 μM for four doublings) stood at 50%; in series [1] (100 μM for three doublings), 31%. The “Parasites with LgyLRV1+ capsid levels in washout population” value in series [1] (100 μM for four doublings) is given as 36%; in series [1] (100 μM for three doublings) it was 55%. Besides, the results for the “Fold less LRV1 capsid expression” value in series [1] (100 μM maintained for four cell doublings) and in series [1] (100 μM maintained for three cell doublings) were 16 fold and 8 fold, respectively. For the same compound, in series [1] (100 μM, capsid flow cytometry and qRT-PCR), the “Loss of LRV1 capsid and RNA at every cell doubling” value stood at 50%. Further, the “Selectivity for LRV1 versus L. guyanensis growth inhibition” value in series [1] (EC50 growth vs EC50 LRV1 capsid) is “at least 30 fold”. The “LRV1 capsid (geometric mean FU)” value in series [1] (LgyLRV1+, tested at 100 μM, 2 days) is 19 FU. Further, in series [1] (tested at 100 μM), the “Reduction in LRV1 capsid levels” value was 12 fold. In addition, the “Concentration that eradicates / completely inhibits LRV1 replication” value in series [3] is 10 µM. Also, the Serum half-life in series [4] was 18 min.

Source of the values: US20190307783A1, “USE OF ANTIVIRALS TO INHIBIT PROTOZOAN VIRUSES” (priority 2016, published 2019).
